Source: the supplement of paper PMC10307832

Columns and labels:
Assay in all cases: relative viability (nuclei count vs DMSO), 5 days (fraction); higher = more cells survive
Dasatinib + Crizotinib = compound: Cc1nc(Nc2ncc(C(=O)Nc3c(C)cccc3Cl)s2)cc(N2CCN(CCO)CC2)n1 [Dasatinib] + C[C@@H](Oc1cc(-c2cnn(C3CCNCC3)c2)cnc1N)c1c(Cl)ccc(F)c1Cl [Crizotinib] (partner 1 µM)
Procedure, shortened: (§1)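 One day after seeding in 1536-well plates, lung cancer cell lines were dosed by pin tool. Dosing was either single-drug or a fixed anchor-drug dose plus five library-drug doses (not always all listed) in √10 steps. After 5 days, nuclei were stained in one fix-and-stain step and counted on 4× images, and relative viability is the nuclei count of treated wells over that of vehicle wells, given as the median of duplicate plates.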

Dasatinib + Olaparib = compound: Cc1nc(Nc2ncc(C(=O)Nc3c(C)cccc3Cl)s2)cc(N2CCN(CCO)CC2)n1 [Dasatinib] + O=C(c1cc(Cc2n[nH]c(=O)c3ccccc23)ccc1F)N1CCN(C(=O)C2CC2)CC1 [Olaparib] (partner 8 µM)
Procedure, shortened: as §1

XMD13-2 + Pictilisib = compound: C1CC1C(=O)NC2=NNC3=C2C=CC(=C3)C4=CC(=CC=C4)C(=O)NC5CC5 [XMD13-2] + CS(=O)(=O)N1CCN(Cc2cc3nc(-c4cccc5[nH]ncc45)nc(N4CCOCC4)c3s2)CC1 [Pictilisib] (partner 1 µM)
Procedure, shortened: as §1

XMD13-2 + Crizotinib = compound: C1CC1C(=O)NC2=NNC3=C2C=CC(=C3)C4=CC(=CC=C4)C(=O)NC5CC5 [XMD13-2] + C[C@@H](Oc1cc(-c2cnn(C3CCNCC3)c2)cnc1N)c1c(Cl)ccc(F)c1Cl [Crizotinib] (partner 1 µM)
Procedure, shortened: as §1

Cell Line | relative viability (Dasatinib + Crizotinib; first compound 0.005 µM) | relative viability (Dasatinib + Crizotinib; first compound 0.01581 µM) | relative viability (Dasatinib + Crizotinib; first compound 0.05 µM) | relative viability (Dasatinib + Crizotinib; first compound 0.1581 µM) | relative viability (Dasatinib + Crizotinib; first compound 0.5 µM) | relative viability (Dasatinib + Olaparib; first compound 0.005 µM) | relative viability (Dasatinib + Olaparib; first compound 0.01581 µM) | relative viability (Dasatinib + Olaparib; first compound 0.05 µM) | relative viability (Dasatinib + Olaparib; first compound 0.1581 µM) | relative viability (Dasatinib + Olaparib; first compound 0.5 µM) | relative viability (XMD13-2 + Pictilisib; first compound 0.05 µM) | relative viability (XMD13-2 + Pictilisib; first compound 0.1581 µM) | relative viability (XMD13-2 + Pictilisib; first compound 0.5 µM) | relative viability (XMD13-2 + Pictilisib; first compound 1.581 µM) | relative viability (XMD13-2 + Pictilisib; first compound 5 µM) | relative viability (XMD13-2 + Crizotinib; first compound 0.05 µM) | relative viability (XMD13-2 + Crizotinib; first compound 0.1581 µM) | relative viability (XMD13-2 + Crizotinib; first compound 0.5 µM) | relative viability (XMD13-2 + Crizotinib; first compound 1.581 µM) | relative viability (XMD13-2 + Crizotinib; first compound 5 µM)
NCI-H2126 | 0.966 | 0.9 | 0.915 | 0.607 | 0.369 | 0.932 | 0.84 | 0.845 | 0.681 | 0.416 | 0.508 | 0.448 | 0.503 | 0.518 | 0.502 | 1.08 | 0.979 | 1.04 | 0.998 | 1.06
SK-LU-1 | 0.558 | 0.417 | 0.35 | 0.251 | 0.251 | 0.471 | 0.317 | 0.323 | 0.188 | 0.167 | 0.604 | 0.671 | 0.658 | 0.563 | 0.502 | 0.912 | 0.966 | 1 | 0.828 | 0.944
HCC-78 | 0.314 | 0.289 | 0.25 | 0.158 | 0.145 | 0.596 | 0.649 | 0.639 | 0.577 | 0.243 | 0.227 | 0.281 | 0.195 | 0.223 | 0.188 | 0.373 | 0.356 | 0.34 | 0.35 | 0.309
LCLC-97TM1 | 0.336 | 0.485 | 0.307 | 0.238 | 0.146 | 0.468 | 0.449 | 0.557 | 0.393 | 0.4 | 0.297 | 0.187 | 0.13 | 0.148 | 0.123 | 0.432 | 0.318 | 0.265 | 0.374 | 0.256
NCI-H838 | 0.571 | 0.577 | 0.306 | 0.23 | 0.202 | 0.622 | 0.453 | 0.403 | 0.229 | 0.179 | 0.423 | 0.512 | 0.497 | 0.447 | 0.466 | 0.917 | 0.891 | 0.814 | 0.883 | 0.848
NCI-H520 | 0.656 | 0.442 | 0.419 | 0.144 | 0.138 | 0.335 | 0.244 | 0.237 | 0.127 | 0.16 | 0.318 | 0.299 | 0.313 | 0.275 | 0.251 | 0.962 | 0.681 | 0.682 | 0.672 | 0.403
NCI-H2347 | 0.316 | 0.397 | 0.355 | 0.301 | 0.369 | 0.566 | 0.508 | 0.482 | 0.269 | 0.256 | 0.743 | 0.655 | 0.826 | 0.827 | 0.387 | 0.739 | 0.676 | 0.772 | 0.906 | 0.73
NCI-H441 | 0.62 | 0.626 | 0.617 | 0.309 | 0.162 | 0.532 | 0.529 | 0.519 | 0.387 | 0.309 | 0.445 | 0.505 | 0.539 | 0.37 | 0.411 | 0.842 | 0.715 | 0.875 | 0.656 | 0.578
NCI-H1944 | 1.06 | 0.847 | 0.779 | 0.327 | 0.233 | 0.415 | 0.298 | 0.332 | 0.191 | 0.135 | 0.352 | 0.345 | 0.357 | 0.373 | 0.333 | 1.42 | 1.11 | 1.14 | 1.35 | 1.09
NCI-H2405 | 0.698 | 0.568 | 0.493 | 0.258 | 0.194 | 0.749 | 0.531 | 0.458 | 0.282 | 0.231 | 0.539 | 0.543 | 0.434 | 0.389 | 0.474 | 0.932 | 0.84 | 0.971 | 0.846 | 0.837
HCC-15 | 0.873 | 0.699 | 0.743 | 0.514 | 0.489 | 0.763 | 0.764 | 0.851 | 0.733 | 0.689 | 0.766 | 0.721 | 0.778 | 0.712 | 0.467 | 0.925 | 0.766 | 0.857 | 0.793 | 0.472
